Laboratory results taken from patent US7939548B2, “Certain chemical entities, compositions, and methods” (Cytokinetics, Inc., priority 2006, dated 2011).

Target: T1, chicken gizzard smooth muscle myosin subfragment-1 chemically crosslinked to either cardiac or skeletal actin (Gallus gallus, UniProt P10587)
T1 construct: chicken gizzard smooth muscle myosin subfragment-1
Assay: Smooth muscle myosin ATPase dose response assay (pyruvate kinase/horseradish peroxidase/pyruvate oxidase-coupled)
Assay type: biochemical
Conditions: ATPase activity of crosslinked smooth muscle actomyosin (subfragment-1); amplex red fluorescence; 4 parameter fit; read-out: IC50 Arithmetic Mean
Experimental: Screening assays were performed using a pyruvate kinase and lactate dehydrogenase-coupled ATPase assay containing the following reagents: Potassium PIPES (50 mM), MgCl2 (3 mM), KCl (100 mM), ATP (0.15 mM), DTT (1 mM), BSA (0.1 mg/ml), NADH (0.5 mM), PEP (1.5 mM), pyruvate kinase (4 U/ml), lactate dehydrogenase (8 U/ml), and antifoam (50 ppm) (concentrations expressed are final assay concentrations). The pH was adjusted to 6.80 at 22 °C by addition of potassium hydroxide. Lead optimization assays were performed with a more sensitive pyruvate kinase/horseradish peroxidase/pyruvate oxidase-coupled ATPase assay containing the following reagents: Potassium PIPES (12 mM), MgCl2 (2 mM), KCl (100 mM), ATP (0.15 mM), BSA (0.05 mg/ml), potassium phosphate (2 mM), amplex red (0.1 mM), PEP (0.1 mM), pyruvate kinase (4 U/ml), horseradish peroxidase (0.5 U/ml), pyruvate oxidase (0.5 U/ml), and antifoam (50 ppm) (concentrations expressed are final assay concentrations). The pH was adjusted to 7.00 at 22 °C by addition of potassium hydroxide.
The protein components specific to this assay are chicken gizzard smooth muscle myosin subfragment-1 that has been chemically crosslinked to either cardiac or skeletal actin using an excess of 1-Ethyl-3-[3-dimethylaminopropyl]carbodiimide hydrochloride and N-hydroxysuccinimide. The exact concentration of the crosslinked smooth muscle myosin in the assay is determined empirically, by titration to achieve a desired rate of ATP hydrolysis. The concentration varies between protein preparations due to variations in the fraction of active molecules in each preparation.
Compound dose response assays are performed by first preparing a dilution series of test compound, each with an assay mixture containing potassium PIPES, MgCl2, KCl, ATP, BSA, potassium phosphate, amplex red, PEP, crosslinked smooth muscle actomyosin (subfragment-1), antifoam, and water. The assay is started by adding an equal volume of solution containing potassium Pipes, MgCl2, KCl, BSA, potassium phosphate, pyruvate kinase, horseradish peroxidase, pyruvate oxidase, antifoam, and water. ATP hydrolysis is monitored by measuring the fluorescence of amplex red (excitation at 480 nm, emission at 615 nm). The resulting dose response curve is fit by the 4 parameter equation y=Bottom+((Top-Bottom)/(1+((IC50/X)^Hill))). The IC50 is defined as the concentration at which ATPase activity is midway between the top and bottom of the dose response curve.

| SMILES | IC50 [µM] |
| --- | --- |
| COC(=O)c1ccc(NCCCCC(N)=O)nc1NCCc1cccc(F)c1 [methyl 6-[(4-carbamoylbutyl)amino]-2-{[2-(3-fluorophenyl)ethyl]amino}pyridine-3-carboxylate] | 44.3 |
| CNC(=O)CNC(=O)c1cc(-c2ccccc2C#N)cnc1NCCc1cccc(F)c1 [2-[(5-(2-cyanophenyl)-2-{[2-(3-fluorophenyl)ethyl]amino}(3-pyridyl))carbonylamino]-N-methylacetamide] | 18 |
| CCOC(C)c1ccc(C(=O)NCc2cccnc2)c(NCCc2cccc(F)c2)n1 (centres unmarked) [(6-(ethoxyethyl)-2-{[2-(3-fluorophenyl)ethyl]amino}(3-pyridyl))-N-(3-pyridylmethyl)carboxamide] | 73 |
| CC(=O)N(C)c1ccc(C(=O)NCc2cccnc2)c(NCCc2cccc(F)c2)n1 [N-(6-{[2-(3-fluorophenyl)ethyl]amino}-5-[N-(3-pyridylmethyl)carbamoyl](2-pyridyl))-N-methylacetamide] | 33.5 |
| CN(CCO)c1ccc(C(=O)NCc2cccnc2)c(NCCc2cccc(F)c2)n1 [(2-{[2-(3-fluorophenyl)ethyl]amino}-6-[(2-hydroxyethyl)methylamino](3-pyridyl))-N-(3-pyridylmethyl)carboxamide] | 45.4 |
| CC(=O)N(CCO)c1ccc(C(=O)NCc2cccnc2)c(NCCc2cccc(F)c2)n1 [N-(6-{[2-(3-fluorophenyl)ethyl]amino}-5-[N-(3-pyridylmethyl)carbamoyl](2-pyridyl))-N-(2-hydroxyethyl)acetamide] | 53.4 |
| CN(C)C(=O)CCCNc1ccc(C(=O)NCc2cccnc2)c(NCCc2cccc(F)c2)n1 [4-[(6-{[2-(3-fluorophenyl)ethyl]amino}-5-[N-(3-pyridylmethyl)carbamoyl](2-pyridyl))amino]-N,N-dimethylbutanamide] | 70.3 |
| NCc1cccc(CNC(=O)c2cc(Br)cnc2NCCc2cccc(F)c2)n1 [N-{[6-(aminomethyl)(2-pyridyl)]methyl}(5-bromo-2-{[2-(3-fluorophenyl)ethyl]amino}(3-pyridyl))carboxamide] | 15 |
| O=C(NCc1cccnc1)c1ccc(NCc2ccncc2)nc1NCCc1cccc(F)c1 [(2-{[2-(3-fluorophenyl)ethyl]amino}-6-[(4-pyridylmethyl)amino](3-pyridyl))-N-(3-pyridylmethyl)carboxamide] | 34 |
| CN(C)C(=N)c1ccc(C(=O)NCc2cccnc2)c(NCCc2cccc(F)c2)n1 [(6-[(dimethylamino)iminomethyl]-2-{[2-(3-fluorophenyl)ethyl]amino}(3-pyridyl))-N-(3-pyridylmethyl)carboxamide] | 17.3 |
| CC(=O)c1ccc(C(=O)NCc2cccnc2)c(NCCc2cccc(F)c2)n1 [(6-acetyl-2-{[2-(3-fluorophenyl)ethyl]amino}(3-pyridyl))-N-(3-pyridylmethyl)carboxamide] | 24.8 |
| CN(C)C(=O)CCCCNc1ccc(C(=O)NCc2cccnc2)c(NCCc2cccc(F)c2)n1 [5-[(6-{[2-(3-fluorophenyl)ethyl]amino}-5-[N-(3-pyridylmethyl)carbamoyl](2-pyridyl))amino]-N,N-dimethylpentanamide] | 55.1 |

Continued by falling IC50, values first:

| IC50 [µM] | SMILES |
| --- | --- |
| 14.9 | COC(=O)c1cc(C#N)cnc1NCCc1cccc(F)c1 [methyl 5-cyano-2-{[2-(3-fluorophenyl)ethyl]amino}pyridine-3-carboxylate] |
| 11.2 | O=C(O)c1cc(Br)cnc1NCCc1cccc(F)c1 [5-bromo-2-{[2-(3-fluorophenyl)ethyl]amino}pyridine-3-carboxylic acid] |
| 11 | COCCCNc1ccc(C(=O)NCc2cccnc2)c(NCCc2cccc(F)c2)n1 [(2-{[2-(3-fluorophenyl)ethyl]amino}-6-[(3-methoxypropyl)amino](3-pyridyl))-N-(3-pyridylmethyl)carboxamide] |
| 10.9 | CNc1ccc(C(=O)NCc2cccnc2)c(NCCc2cccc(F)c2)n1 [(2-{[2-(3-fluorophenyl)ethyl]amino}-6-(methylamino)(3-pyridyl))-N-(3-pyridylmethyl)carboxamide] |
| 6.62 | N=C(N)c1ccc(C(=O)NCc2cccnc2)c(NCCc2cccc(F)c2)n1 [6-{[2-(3-fluorophenyl)ethyl]amino}-5-[N-(3-pyridylmethyl)carbamoyl]pyridine-2-carboxamidine] |
| 6.03 | N#Cc1ccccc1-c1cnc(NCCc2cccc(F)c2)c(C(=O)NCc2cccc(CN)n2)c1 [N-{[6-(aminomethyl)(2-pyridyl)]methyl}(5-(2-cyanophenyl)-2-{[2-(3-fluorophenyl)ethyl]amino}(3-pyridyl))carboxamide] |
| 4.92 | CN(C)c1ccc(C(=O)NCc2cccnc2)c(NCCc2cccc(F)c2)n1 [(6-(dimethylamino)-2-{[2-(3-fluorophenyl)ethyl]amino}(3-pyridyl))-N-(3-pyridylmethyl)carboxamide] |
| 2.77 | CC(C)=C(C)c1ccc(C(=O)NCc2cccnc2)c(NCCc2cccc(F)c2)n1 [(6-(1,2-dimethylprop-1-enyl)-2-{[2-(3-fluorophenyl)ethyl]amino}(3-pyridyl))-N-(3-pyridylmethyl)carboxamide] |
| 2.69 | NCc1ncccc1CNC(=O)c1cc(F)cnc1NCCc1cccc(F)c1 [N-{[2-(aminomethyl)(3-pyridyl)]methyl}(5-fluoro-2-{[2-(3-fluorophenyl)ethyl]amino}(3-pyridyl))carboxamide] |
| 2.65 | CCOC(=O)c1ccc(C(=O)NCc2cccnc2)c(NCCc2cccc(F)c2)n1 [ethyl 6-{[2-(3-fluorophenyl)ethyl]amino}-5-[N-(3-pyridylmethyl)carbamoyl]pyridine-2-carboxylate] |
| 0.927 | COC/C=C/c1ccc(C(=O)NCc2cccnc2)c(NCCc2cccc(F)c2)n1 [(6-((1E)-3-methoxyprop-1-enyl)-2-{[2-(3-fluorophenyl)ethyl]amino}(3-pyridyl))-N-(3-pyridylmethyl)carboxamide] |
| 0.361 | C/C=C/c1nc(NCCc2cccc(F)c2)c(C(=O)NCc2cccnc2)cc1C#N [(6-((1E)prop-1-enyl)-5-cyano-2-{[2-(3-fluorophenyl)ethyl]amino}(3-pyridyl))-N-(3-pyridylmethyl)carboxamide] |
| 0.347 | CC(C)=Cc1ccc(C(=O)NCc2cccnc2)c(NCCc2cccc(F)c2)n1 [(2-{[2-(3-fluorophenyl)ethyl]amino}-6-(2-methylprop-1-enyl)(3-pyridyl))-N-(3-pyridylmethyl)carboxamide] |
| 0.302 | C/C=C/c1ccc(C(=O)NCc2cccnc2)c(NCCc2cccc(F)c2)n1 [(6-((1E)prop-1-enyl)-2-{[2-(3-fluorophenyl)ethyl]amino}(3-pyridyl))-N-(3-pyridylmethyl)carboxamide] |
| 0.231 | N#CNC(=N)c1ccc(C(=O)NCc2cccnc2)c(NCCc2cccc(F)c2)n1 [(6-[(cyanoamino)iminomethyl]-2-{[2-(3-fluorophenyl)ethyl]amino}(3-pyridyl))-N-(3-pyridylmethyl)carboxamide] |
| 0.0805 | C/C=C/c1nc(NCCc2cccc(F)c2)c(C(=O)NCc2cccnc2CN)cc1F [(6-((1E)prop-1-enyl)-5-fluoro-2-{[2-(3-fluorophenyl)ethyl]amino}(3-pyridyl))-N-{[2-(aminomethyl)(3-pyridyl)]methyl}carboxamide] |
| 0.038 | C/C=C/c1ccc(C(=O)NCc2cccnc2CN)c(NCCc2cccc(F)c2)n1 [(6-((1E)prop-1-enyl)-2-{[2-(3-fluorophenyl)ethyl]amino}(3-pyridyl))-N-{[2-(aminomethyl)(3-pyridyl)]methyl}carboxamide] |
